Experiments:
Beta-secretase 1 = Beta-secretase 1 (Homo sapiens, UniProt P56817); experiment: Inhibition of BACE-1
Caco-2 = experiment: (§1) Apparent permeability in human Caco-2 cells assessed as Pgp efflux ratio from basolateral to apical side to apical to basolateral side; assay type: ADME, cell-based
P-gp = experiment: as §1; assay type: ADME, cell-based

Chain of Beta-secretase 1 (P56817 whole entry): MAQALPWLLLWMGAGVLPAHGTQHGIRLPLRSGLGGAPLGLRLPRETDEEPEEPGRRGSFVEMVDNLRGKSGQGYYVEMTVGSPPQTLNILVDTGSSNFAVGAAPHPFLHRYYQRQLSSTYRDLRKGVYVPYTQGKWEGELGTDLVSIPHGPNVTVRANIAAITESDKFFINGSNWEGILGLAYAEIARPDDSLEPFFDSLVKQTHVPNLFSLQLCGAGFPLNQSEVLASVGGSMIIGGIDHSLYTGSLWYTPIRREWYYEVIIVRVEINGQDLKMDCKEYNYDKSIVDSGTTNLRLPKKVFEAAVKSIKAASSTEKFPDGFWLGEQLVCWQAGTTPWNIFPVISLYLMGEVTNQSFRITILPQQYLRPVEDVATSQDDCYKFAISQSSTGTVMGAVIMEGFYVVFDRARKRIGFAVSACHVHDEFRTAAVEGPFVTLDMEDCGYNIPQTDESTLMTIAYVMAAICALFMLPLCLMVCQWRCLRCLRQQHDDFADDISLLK

| Compound | IC50 (Beta-secretase 1) [nM] | Ratio (Caco-2) | efflux ratio (P-gp) |
| --- | --- | --- | --- |
| COc1ccc(C(Cc2ccc(C(F)(F)F)cc2)c2cn(C)c(N)n2)cc1 (stereo not given) | 1800 | 4 | – |
| COc1ccc2c(c1F)CCC2(Cc1ccc(C(F)(F)F)cc1)c1cn(C)c(N)n1 (stereo not given) | 63 | – | 3.6 |
| COc1ccc2c(c1)CCC2(Cc1ccc(C(F)(F)F)cc1)c1cn(C)c(N)n1 (stereo not given) | 350 | – | – |
